Data set [1] deals with L6-GLUT4 myotubes. Further details: method as in PMID 30321069, PMID 1505458. The note with it: cited from earlier work.
The subject of data set [2] is L6-GLUT4 myotubes. In words: Radioactive 2-deoxyglucose glucose uptake assay. In kind it is cell-based, Rat. Particulars: 50 μM, 20 h; for increase of glucose uptake with insulin stimulation: 100 nM insulin 15 min, compared to control cells stimulated with insulin; for increase of glucose uptake without insulin: serum starvation, no insulin, vs control. The method, then: (§1) Rat L6 myoblasts (American Type Culture Collection, Manassas, Virginia, USA) and L6 myoblasts stably overexpressing HA-tagged GLUT4 transporter (L6-GLUT4) were grown in high glucose DMEM (Sigma-Aldrich) supplemented with 10% FBS (Sigma-Aldrich, St. Louis, MO, USA), glutamine (Lonza; Walkersville, MD, USA), and penicillin–streptomycin (Sigma-Aldrich) at +37 °C in a humidified 5% CO2 atmosphere. For differentiation, the FBS concentration in the medium was lowered to 2%.
Glucose uptake was measured by a radioactive 2-deoxyglucose assay. L6 myotubes overexpressing GLUT4 glucose transporter were differentiated for 8–9 days. Cells were serum-starved for 20 h supplemented with 50 μM of sulfonanilides 10 or 11, 50 μM of metformin. Thereafter, cells were stimulated or not with 100 nM insulin for 15 min at 37 °C in DMEM (without D-glucose, L-glutamine, phenol red, and sodium pyruvate) (Gibco/Thermo Fisher Scientific). The cells were exposed to 1 μCi/mL 2-deoxy-D-[1, 2-^3H(N)]-glucose (PerkinElmer, Waltham MA, USA) for 5 min at 37 °C. Cells were lysed in 1% Triton X-100 in PBS, and the radioactivity of lysates was measured with a Wallac 1450 Microbeta Trilux liquid scintillator and a luminescense counter (PerkinElmer). Four independent experiments were performed, with 4 technical replicates for each condition.

The test system of data set [3] is L6-GLUT4 myotubes. As to the kind of experiment: On-Cell Western for HA-GLUT4 on the plasma membrane. The format is cell-based, Rat. The note with it: for increase of GLUT4 on the plasma membrane with insulin stimulation, compared to control cells treated with insulin / increase of GLUT4 on the plasma membrane with insulin stimulation, compared to control cells without insulin / increase of GLUT4 on the plasma membrane without insulin stimulation: 50 μM, 20 h; for increase of GLUT4 on the plasma membrane without insulin stimulation: no insulin, vs control without insulin. How it is done:
as §1
Differentiated L6-GLUT4 myotubes cultured on 96-well plate were treated with sulfonanilides 10 or 11 at 50 μM concentration for 20 h, of which the last 4 h in a serum-free medium. The quiescent cells were stimulated or not with 100 nM insulin for 15 min at 37 °C and fixed with 2% paraformaldehyde on ice for 5 min followed by 20 min at room temperature. The cells were incubated with a primary antibody against HA.11 epitope tag (#901513, BioLegend, San Diego, CA, USA) diluted 1/100 in 50% Odyssey Blocking buffer (LI-COR) in PBS at room temperature for 1 h, followed by incubation with a secondary antibody (IRDye 800CW Donkey anti-Mouse, LI-COR) and the nuclear marker DRAQ-5 (Thermo Fisher Scientific, Rockford, IL, USA) at room temperature for 1 h. The fluorescent signals were detected and quantified with an Odyssey infrared imager (LI-COR). DRAQ-5 was used for normalization. Four independent experiments were performed, resulting in total in 30–34 replicates for each condition.

Data set [4] concerns the target T1, recombinant SHIP2 phosphatase domain (Homo sapiens, UniProt O15357).
T1 construct: 100 ng of purified His-tagged recombinant SHIP2 phosphatase domain; His tag
T1 sequence (O15357 419-732 limits assumed): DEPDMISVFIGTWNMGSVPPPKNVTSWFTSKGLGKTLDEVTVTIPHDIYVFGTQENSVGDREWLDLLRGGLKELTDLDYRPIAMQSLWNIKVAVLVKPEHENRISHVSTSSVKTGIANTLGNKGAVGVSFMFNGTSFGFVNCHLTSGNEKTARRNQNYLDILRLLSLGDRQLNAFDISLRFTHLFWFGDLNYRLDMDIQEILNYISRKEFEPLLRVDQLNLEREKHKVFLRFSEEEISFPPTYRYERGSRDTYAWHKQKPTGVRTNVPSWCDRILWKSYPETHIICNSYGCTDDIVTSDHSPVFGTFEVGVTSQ
As to the kind of experiment: SHIP2 activity measurement, malachite green phosphate assay. Particulars: for Emax: read-out: max. inhibition of SHIP2 activity; for IC50: 100 μM PI(3,4,5)P3, four-parameter curve-fit. The format is biochemical. The method, then: For the activity measurements and other biological assays, sulfonanilides 1–12 were dissolved in DMSO and then further diluted into indicated concentrations in assay buffers or media. The capacities of 1–12 to inhibit SHIP2 activity and the IC50 values of 1–12 were measured using the recombinant SHIP2 phosphatase domain and malachite green phosphate assay at the High Throughput Biomedicine Unit (University of Helsinki, Finland). Different concentrations of 1–12 were dispensed to 384-well plates after which 100 ng of purified His-tagged recombinant SHIP2 phosphatase domain in reaction buffer (10 mM HEPES, pH 7.25, 6 mM MgCl2, 0.1% CHAPS, 250 mM sucrose and 0.25 mM EDTA) was added, and the plates were incubated for 15 min at room temperature. The reaction was started by adding 7.5 μL of PI(3,4,5)P3 (Echelon Biosciences, Salt Lake City, UT, USA) diluted in the reaction buffer (the final concentration of PI(3,4,5)P3 per well was 100 μM in the total volume of 15 μL), plates were incubated for 20 min at room temperature, and 15 μL of BIOMOL green reagent (Biomol, Plymouth Meeting, PA, USA) was added to wells. After 25 min incubation at room temperature, the absorbance was measured at 620 nm using a Pherastar FS plate reader (BMG Labtech, Offenburg, Germany) (n = 3 for each condition).
Data are presented as means ± STD or SEM of three or four independent experiments. Statistical analyses were performed using an unpaired, two-tailed Student’s t-test. P-values ≤0.05 were considered statistically significant. IC50-values were calculated using GraphPad Software, Inc., Prism version 6.05 (San Diego, CA, USA) using four-parameter curve-fit.

Data set [5] deals with Akt phosphorylation in L6 myotubes. In words: Akt activation (phosphorylation at Ser473) assay, quantitative Western blotting. In kind it is cell-based, Rat. The note with it: 15 min pretreatment then 10 nM insulin for 15 min. The method, then: as §1
To measure the Akt activation (phosphorylation), L6 myoblasts were differentiated into myotubes for 7 days, serum starved O/N, and treated with 0–50 μM sulfonanilides for 15 min after which 10 nM insulin (Actrapid, Novo Nordisk, Bagsvaerd, Denmark) was added for an additional 15 min. The cells were lysed in NP-40 buffer (1% nonidet P-40, 20 mM Tris–HCl pH 7.4, 150 mM NaCl) supplemented with phosphatase inhibitors (50 mM NaF and 1 mM Na3VO4) and protease inhibitor cocktail (cOmpleteProtease Inhibitor Coctail tablets, Roche Diagnostics GmbH, Mannheim, Germany) and then immunoblotted as in Tolvanen et al.[32] Briefly, samples were separated in 8% polyacrylamide gels and transferred onto PVDF membrane (Immobilon-FL PVDF transfer membrane, Merck Millipore Ltd., Tullagreen, Ireland). […]
(In western blotting, separated proteins are transferred to a membrane and probed.)

The next data set deals with L6 myotubes. As to the kind of experiment: alamarBlue cell viability (cytotoxicity) assay. In kind it is cell-based, Rat. Particulars: for effect on metabolic activity of the cells (alamarBlue): 50 μM; for effect on cell viability: up to 200 μM. The method, then:
as §1
For cytotoxicity analyses, L6 myoblasts were seeded on 96-well plates, differentiated for 7 days into myotubes, and incubated O/N with 0-300 μM sulfonanilides after which 10 μL of alamarBlue cell viability reagent (ThermoFisher Scientific, Waltham, MA, USA) was added according to the manufacturer instructions. The fluorescence was measured at 544/590 nm ± 20 nm using a Hidex Sense microplate reader (Hidex, Turku, Finland) at 0 and 60 min time points after the addition of the alamarBlue reagent, and the viability of the cells was calculated. The assay was repeated three times (n = 4 for each condition).

Setting [6] is: purified His-tagged SHIP2 phosphatase domain.
Setting [7] is: purified His-tagged SHIP2 phosphatase domain, 100 μM PI(3,4,5)P3, n = 3.

In general, IC50 refers to the point on the concentration scale where inhibition reaches its midpoint.

“Also recorded” adds a separate entry of the source. Read-outs that look alike come from different tables or passages of the source.

Consider `CN(C)C(=N)N=C(N)N` [Metformin, metformin, reference compound], for which the “concentration necessary to increase glucose uptake into myotubes” value with L6-GLUT4 myotubes [1] is on record as 2 mM. Besides, in the data set with L6-GLUT4 myotubes [2], the “increase of glucose uptake with insulin stimulation” value is on record as “did not enhance glucose uptake; also recorded: did not increase glucose uptake” and the “increase of glucose uptake without insulin” value is “did not enhance glucose uptake”.
On to “insulin: insulin (Actrapid, Novo Nordisk) used to stimulate myotubes”, for which the “increase of GLUT4 on the plasma membrane by insulin stimulation alone” value in the data set with L6-GLUT4 myotubes [3] (control myotubes without sulfonanilide, 100 nM insulin 15 min, vs no insulin) is given as 16%.
Turning to `Cc1ccc(S(=O)(=O)N(C)c2ccccc2)cc1` [Compound 2, N-Methyl-p-toluenesulfonanilide], the Emax in data set [4] was 10 ± 7.2%.
Take `O=S(=O)(Nc1ccc(F)cc1Br)c1cccs1` [Compound 10, 2′-Bromo-4′-fluoro-2-thiophenesulfonanilide]: in the data set with L6-GLUT4 myotubes [3] (100 nM insulin 15 min), the “increase of GLUT4 on the plasma membrane with insulin stimulation, compared to control cells treated with insulin” value worked out at 10% and the “increase of GLUT4 on the plasma membrane with insulin stimulation, compared to control cells without insulin” value is recorded as 26%. Further, the “increase of GLUT4 on the plasma membrane without insulin stimulation” value with L6-GLUT4 myotubes [3] was 4%. Also, in data set [5], the “Akt activation at 50 μM” value is on record as “Neither sulfonanilide 10 nor 11 activated Akt; also recorded: did not enhance Akt activation”. In the data set with L6-GLUT4 myotubes [2], the “increase of glucose uptake with insulin stimulation” value came to 30% and the “increase of glucose uptake without insulin” value was 18–19%. Moreover, the IC50 in data set [4] (setting [6]) was determined as 41.2 µM. The Emax in data set [4] (setting [7]) was found to be 45 ± 17%. In addition, in the data set on L6 myotubes, the “effect on metabolic activity of the cells (alamarBlue)” value is “slightly enhance the metabolic activity”. Besides, in the data set with L6 myotubes (O/N incubation), the “effect on cell viability” value is “no or very little effect on cell viability; also recorded: not cytotoxic”.
As for `CN(c1ccccc1)S(=O)(=O)c1ccc(F)c(F)c1F` [Compound 4, N-Methyl-2,3,4-trifluorobenzenesulfonanilide], the IC50 in data set [4] (setting [6]) is over 50 µM. Further, the Emax in data set [4] (setting [7]) worked out at 12 ± 4%.
For `Cc1ccc(S(=O)(=O)Nc2ccc(F)cc2Br)cc1` [Compound 7, 2′-Bromo-4′-fluoro-p-toluenesulfonanilide], the IC50 in data set [4] (setting [6]) was over 50 µM. For the same molecule, in data set [4] (setting [7]), the Emax worked out at 17 ± 2.1%.
Consider `CN(c1ccc(F)cc1F)S(=O)(=O)c1ccc(F)c(F)c1F` [Compound 11, 2′,4′-Difluoro-N-methyl-2,3,4-trifluorobenzenesulfonanilide], for which, in the data set with L6-GLUT4 myotubes [3] (100 nM insulin 15 min), the “increase of GLUT4 on the plasma membrane with insulin stimulation, compared to control cells treated with insulin” value is given as “no increase” and the “increase of GLUT4 on the plasma membrane with insulin stimulation, compared to control cells without insulin” value is reported as 15%. In addition, the “increase of GLUT4 on the plasma membrane without insulin stimulation” value in the data set on L6-GLUT4 myotubes [3] stood at 8%. Also, the “Akt activation at 50 μM” value in data set [5] is on record as “Neither sulfonanilide 10 nor 11 activated Akt; also recorded: did not enhance Akt activation”. In the data set on L6-GLUT4 myotubes [2], the “increase of glucose uptake with insulin stimulation” value is listed as 23% and the “increase of glucose uptake without insulin” value is 18–19%. Besides, the IC50 in data set [4] (setting [6]) was 7.07 µM. For the same molecule, in data set [4] (setting [7]), the Emax came out at 45 ± 0.7%. In addition, in the data set with L6 myotubes, the “effect on metabolic activity of the cells (alamarBlue)” value was “slightly enhance the metabolic activity”. The “decrease of cell viability” value in the data set with L6 myotubes (300 μM, O/N incubation) amounted to 24%. Further, in the data set with L6 myotubes (O/N incubation), the “effect on cell viability” value was “no or very little effect on cell viability”.
`CN(c1ccccc1)S(=O)(=O)c1ccccc1` [Compound 1, N-Methylbenzenesulfonanilide]: the Emax in data set [4] turned out to be 6 ± 2.8%.
Turning to `O=S(=O)(Nc1ccc(F)cc1Br)c1ccoc1` [Compound 9, 2′-Bromo-4′-fluoro-3-furansulfonanilide], the Emax in data set [4] (setting [7]) amounted to 9 ± 3%.
As to `CN(c1ccccc1)S(=O)(=O)c1cccs1` [Compound 6, N-Methyl-2-thiophenesulfonanilide], the IC50 in data set [4] (setting [6]) was over 50 µM. For the same molecule, the Emax in data set [4] (setting [7]) was 11 ± 2.2%.
With `O=S(=O)(Nc1ccc(F)cc1Br)c1ccc(F)c(F)c1F` [Compound 8, 2′-Bromo-4′-fluoro-2,3,4-trifluorobenzenesulfonanilide], the Emax in data set [4] (setting [7]) came out at 10 ± 5.1%.
Consider `CN(c1ccccc1)S(=O)(=O)c1ccoc1` [Compound 5, N-Methyl-3-furansulfonanilide], for which the Emax in data set [4] (setting [7]) amounted to 3 ± 1.5%.
As for `CN(c1ccc(F)cc1F)S(=O)(=O)c1cccs1` [Compound 12, 2′,4′-Difluoro-N-methyl-2-thiophenesulfonanilide], in data set [4] (setting [7]), the “max. inhibition of SHIP2 activity” value was “almost inactive” and the Emax was determined as 5 ± 1.7%.
In the case of `CN(c1ccccc1)S(=O)(=O)c1ccc2ccccc2c1` [Compound 3, N-Methyl-2-naphthalenesulfonanilide], the IC50 in data set [4] (setting [6]) was over 50 µM. The Emax in data set [4] (setting [7]) was 15 ± 1.6%.
